Test [1] has as its system Micrococcus pyogenes SG-511. The test is described as follows: Antibacterial activity, minimum inhibitory concentration. As to conditions: Staphylococcus aureus, SG511, 18 h, read-out: minimum inhibitory concentration, M. pyogenes.
Experimental: (§1) The antibacterial activity of some of the 3H-1,5-benzodiazepines having the general formula I was tested on the following microorganisms:
(§2) Escherichia coli 100, Bacillus subtilis ATCC 9466, Micrococcus pyogenes SG-511, grown in Difco nutritive gelatin; Streptococcus pyogenes A 88 grown in Difco "Brain heart infusion agar" gelatin with 5 percent difibrinated Guinea pig blood.
(§3) The results were read after 18 hours incubation at 35°-37°C.
Test [2] deals with Bacillus subtilis ATCC 9466. Described as above. As to conditions: ATCC9466, 18 h, read-out: minimum inhibitory concentration, B. subtilis.
Experimental: as §1, §2, §3
Test [3] deals with Streptococcus pyogenes A 88. The test is described as above. As to conditions: A88, 18 h, read-out: minimum inhibitory concentration, S. pyogenes.
Experimental: as §1, §2, §3
Another test concerns Escherichia coli 100. The description is as above. The following applies: Escherichia coli, 100, 18 h, read-out: minimum inhibitory concentration, B. coli.
Test [4] has as its system influenza A virus (PR8 strain). Format: in vivo. The following applies: 0.5 MTD in 10 ml buffered saline with virus, 1 hour at 37°C.

Values after ≈ are worked out from the molar mass of the structure shown. Where a name gives a salt, the structure may show the parent alone.

Experimental for Escherichia coli 100: as §1, §2, §3

Consider `CCCCSc1ccc(C2=Nc3ccccc3N=C(SCC[N+](C)(CC)CC)C2)cc1` [Compound 82], for which the MIC was 2.5 µg/mL in test [1], 2.5 µg/mL in test [2], 2.5 µg/mL in test [3] and 10 µg/mL with Escherichia coli 100.

`CCN(CC)CCSC1=Nc2ccccc2N=C(c2ccccc2)C1` [Compound 53]: the MIC (in test [1]; in test [2]; with Escherichia coli 100) was 80 µg/mL (≈ 228 µM) in each case.

With `CCN(CC)CCSC1=Nc2ccccc2N=C(c2ccc(OC)cc2)C1` [Compound 69], in test [3], the MIC worked out at 80 µg/mL (≈ 210 µM).

Take `CCN(CC)CCSC1=Nc2ccccc2N=C(c2ccc(Sc3ccccc3)cc2)C1` [Compound 29, 2,beta-N-diethylaminoethylthio-4,p-phenylthiophenyl-3H-1,5-benzodiazepine.HOl]: the MIC with Escherichia coli 100 stood at 80 µg/mL (≈ 174 µM).

For `CC[N+](C)(CC)CCSC1=Nc2ccccc2N=C(c2ccc(Br)cc2)C1` [Compound 72], the MIC stood at 10 µg/mL in test [1], 20 µg/mL in test [2], 20 µg/mL in test [3] and 20 µg/mL with Escherichia coli 100.

With `CC[N+](C)(CC)CCCSC1=Nc2ccccc2N=C(c2ccc(Cl)cc2)C1` [Compound 20, 2,gamma,N-diethylaminopropylthio-4,p-chlorophenyl-3H-1,5-benzodiazepine iodomethylate], the MIC in test [1] was determined as 20 µg/mL; in test [2] it was 80 µg/mL; in test [3], 40 µg/mL; in the test with Escherichia coli 100, 80 µg/mL.

In the case of `CCN(CC)CCSC1=Nc2ccccc2N=C(c2ccc(Br)cc2)C1` [Compound 71], the MIC in test [1] turned out to be 20 µg/mL (≈ 46.5 µM); in test [2], 10 µg/mL (≈ 23.2 µM); in test [3], 10 µg/mL (≈ 23.2 µM); in the test on Escherichia coli 100, 80 µg/mL (≈ 186 µM).

Take `c1ccc(C2=Nc3ccccc3N=C(SCCN3CCCCC3)C2)cc1` [Compound 59]: the MIC in test [1] amounted to 80 µg/mL (≈ 220 µM); in test [2] it was 80 µg/mL (≈ 220 µM); in the test on Escherichia coli 100, 160 µg/mL (≈ 440 µM).

With `C[N+]1(C)CC[N+](C)(CCSC2=Nc3ccccc3N=C(c3ccc(Sc4ccccc4)cc3)C2)CC1` [Compound 36, 2,beta,N(N'-methyl)piperazinoethylthio-4-p-phenylthiophenyl-3H-1,5-benzodiazepine bis-iodomethylate], the MIC amounted to 80 µg/mL in test [2] and 160 µg/mL in the test with Escherichia coli 100.

On to `C[N+]1(CCCSC2=Nc3ccccc3N=C(c3ccc(Cl)cc3)C2)CCCC1` [Compound 14, 2,gamma,N-pyrrolidinopropylthio-4,p-chlorophenyl-3H-1.5-benzodiazepine iodomethylate], for which the MIC in test [1] turned out to be 20 µg/mL; in test [2] it was 40 µg/mL; in test [3], 40 µg/mL; in the test on Escherichia coli 100 it was 40 µg/mL.

For the molecule `C[N+]1(C)CCN(CCCSC2=Nc3ccccc3N=C(c3ccccc3)C2)CC1` [Compound 9, 2,gamma,N'-methyl-N-piperazine-n-propylthio-4-phenyl-3H-1,5-benzodiazepine monoiodomethylate], the MIC in test [1] came to 160 µg/mL; in test [2], 160 µg/mL; in test [3] it was 80 µg/mL.

For the molecule `c1ccc(Sc2ccc(C3=Nc4ccccc4N=C(SCCN4CCCC4)C3)cc2)cc1` [Compound 43, 2,beta,N-pyrrolidinoethylthio-4,p-phenylthiophenyl-3H-1,5-benzodiazepine], the MIC in test [2] and in test [3] was 1.25 µg/mL (≈ 2.73 µM) in each case.

`CC[N+](C)(CC)CCSC1=Nc2ccccc2N=C(c2ccc(Oc3ccccc3)cc2)C1` [Compound 28, 2,beta,N-diethylaminoethylthio-4,p-phenoxyphenyl-3H-1,5-benzodiazepine iodomethylate]: in test [4], the “APR8: difference between logarithms of EID95 of controls and of treated eggs” value (“APR8: difference between logarithms” for short) came to 1.

With `CCSc1ccc(C2=Nc3ccccc3N=C(SCC[N+](C)(CC)CC)C2)cc1` [Compound 76], the MIC in test [1] came out at 10 µg/mL; in test [2] it was 10 µg/mL; in test [3] it was 10 µg/mL; in the test on Escherichia coli 100 it was 20 µg/mL.

With `c1ccc(C2=Nc3ccccc3N=C(SCCN3CCCC3)C2)cc1` [Compound 57], the MIC in test [1] was found to be 80 µg/mL (≈ 229 µM); in test [2], 160 µg/mL (≈ 458 µM); in test [3], 80 µg/mL (≈ 229 µM).

As to `C[N+]1(CCSC2=Nc3ccccc3N=C(c3ccccc3)C2)CCOCC1` [Compound 62], in test [4], the “APR8: difference between logarithms” value was 1.

`CC[N+](C)(CC)CCSC1=Nc2ccccc2N=C(c2ccc(Cl)cc2)C1` [Compound 18, 2,beta,N-diethylaminoethylthio-4,p-chlorophenyl-3H-1,5-benzodiazepine iodomethylate]: the MIC in test [1] turned out to be 40 µg/mL; in test [2] it was 20 µg/mL; in the test on Escherichia coli 100, 20 µg/mL.

Regarding `CN(C)CCSC1=Nc2ccccc2N=C(c2ccc(Sc3ccccc3)cc2)C1` [Compound 45, 2,beta,N-dimethylaminoethylthio-4,p-phenylthiophenyl-3H-1,5-benzodiazepine citrate], in test [2], the MIC is 20 µg/mL.

For `C[N+](C)(C)CCCSC1=Nc2ccccc2N=C(c2ccccc2)C1` [Compound 12, 2,gamma,N-dimethylaminopropylthio-4-phenyl-3H-1,5-benzo-diazepine iodomethylate], the MIC in test [2] stood at 160 µg/mL; in test [3] it was 80 µg/mL; in the test on Escherichia coli 100 it was 80 µg/mL.

For the molecule `CC[N+](C)(CC)CCSC1=Nc2ccccc2N=C(c2cccc(Cl)c2)C1` [Compound 22, 2,beta,N-diethylaminoethylthio-4,m-chlorophenyl-3H-1,5-benzodiazepine iodomethylate], the MIC in test [1] was determined as 20 µg/mL; in test [2], 80 µg/mL; in test [3], 40 µg/mL; with Escherichia coli 100, 40 µg/mL.

In the case of `Clc1ccc(C2=Nc3ccccc3N=C(SCCCN3CCCC3)C2)cc1` [Compound 13, 2,gamma,N-pyrrolidinopropylthio-4,p-chlorophenyl-3H-1,5-benzodiazepine^. HCl], the MIC came out at 40 µg/mL in test [1], 40 µg/mL in test [2], 40 µg/mL in test [3] and 80 µg/mL with Escherichia coli 100.

With `CC[N+](C)(CC)CCSC1=Nc2ccccc2N=C(c2ccc(SC)cc2)C1` [Compound 74], the MIC is 20 µg/mL in test [1], 10 µg/mL in test [2], 10 µg/mL in test [3] and 40 µg/mL in the test on Escherichia coli 100.

In the case of `c1ccc(Sc2ccc(C3=Nc4ccccc4N=C(SCCCN4CCCC4)C3)cc2)cc1` [Compound 37, 2,gamma,pyrrolidinopropylthio-4,p-phenylthiophenyl-3H-1,5-benzodiazepine.HC], the MIC in test [1], in test [2] and in test [3] was 5 µg/mL (≈ 10.6 µM) each time.

Regarding `CCN(CC)CCSC1=Nc2ccccc2N=C(c2ccc(Cl)cc2)C1` [Compound 17, 2,beta,N-diethylaminoethylthio-4,p-chlorophenyl-3H-1,5-benzodiazepine^.HCl], the values for the MIC in test [1], in test [2] and in test [3] were 40 µg/mL, 20 µg/mL and 20 µg/mL, respectively.

Regarding `CC[N+](C)(CC)CCSC1=Nc2ccccc2N=C(c2ccc(SC(C)C)cc2)C1` [Compound 80], the MIC in test [1] is 5 µg/mL; in test [2], 5 µg/mL; in test [3] it was 5 µg/mL; in the test on Escherichia coli 100, 40 µg/mL.

Regarding `C[N+]1(CCSC2=Nc3ccccc3N=C(c3ccccc3)C2)CCCC1` [Compound 58], the “APR8: difference between logarithms” value in test [4] is listed as 1.

Take `CC[N+](C)(CC)CCSC1=Nc2ccccc2N=C(c2ccccc2Cl)C1` [Compound 24, 2,β,N-diethylaminoethylthio-4,o-chlorophenyl-3H-1,5-benzodiazepine iodomethylate]: the MIC in test [1] stood at 80 µg/mL.

On to `CCCSc1ccc(C2=Nc3ccccc3N=C(SCC[N+](C)(CC)CC)C2)cc1` [Compound 78], for which the MIC came to 1.25 µg/mL in test [1], 1.25 µg/mL in test [2], 1.25 µg/mL in test [3] and 10 µg/mL in the test with Escherichia coli 100.

With `C[N+]1(CCSC2=Nc3ccccc3N=C(c3ccc(Cl)cc3)C2)CCCC1` [Compound 16, 2,β,N-pyrrolidinoethylthio-4,p-chlorophenyl-3H-1,5-benzodiazepine iodomethylate], the MIC stood at 20 µg/mL in test [1], 40 µg/mL in test [2], 40 µg/mL in test [3] and 40 µg/mL in the test with Escherichia coli 100.

Turning to `CCCSc1ccc(C2=Nc3ccccc3N=C(SCCN(CC)CC)C2)cc1` [Compound 77], the MIC came out at 10 µg/mL (≈ 23.5 µM) in test [1], 5 µg/mL (≈ 11.7 µM) in test [2] and 5 µg/mL (≈ 11.7 µM) in test [3].

`CCN(CC)CCSC1=Nc2ccccc2N=C(c2cccc(Cl)c2)C1` [Compound 21, 2,beta,N-diethylaminothylthio-4,m-chlorophenyl-3H-1,5-benzodiazepine^. HCl]: the MIC in test [1] came out at 40 µg/mL; in test [2] it was 20 µg/mL; in test [3], 40 µg/mL; in the test with Escherichia coli 100, 80 µg/mL.

Take `Clc1ccc(C2=Nc3ccccc3N=C(SCCN3CCCC3)C2)cc1` [Compound 15, 2,beta,N-pyrrolidinoethylthio-4,p-chlorophenyl-3H-1,5-benzodiazepine]: the MIC in test [1] came to 40 µg/mL (≈ 104 µM); in test [2], 20 µg/mL (≈ 52.1 µM); in test [3], 40 µg/mL (≈ 104 µM); in the test with Escherichia coli 100, 80 µg/mL (≈ 208 µM).

As to `CN1CCN(CCSC2=Nc3ccccc3N=C(c3ccccc3)C2)CC1` [Compound 63], the “APR8: difference between logarithms” value in test [4] worked out at 1.

`CCN(CC)CCSC1=Nc2ccccc2N=C(c2ccc(Oc3ccccc3)cc2)C1` [Compound 27, 2,beta,N-diethylaminoethylthio-4,p-phenoxyphenyl-3H-1,5-benzodiazepine.HCl]: the MIC is 10 µg/mL in test [2] and 80 µg/mL in the test with Escherichia coli 100.

In the case of `CCN(CC)CCCSC1=Nc2ccccc2N=C(c2ccc(Cl)cc2)C1` [Compound 19, 2,gamma,N-diethylaminopropylthio-4,p-chlorophenyl-3H-1,5-benzodiazepine^. HCl], the MIC in test [1] was 40 µg/mL; in test [2], 40 µg/mL; in test [3] it was 40 µg/mL; with Escherichia coli 100, 80 µg/mL.

The values are drawn from US3933793A, “Therapeutically active 2-aminoalkylthio-3H-1.5-benzodiazepines and process for preparing them” (Recordati S.A. Chemical and Pharmaceutical Company, priority 1971, dated 1976).
